From US20260365692A1, “COMPOSITIONS COMPRISING PROTEINS DISSOLVED IN FLUORINATED SOLVENTS, AND METHODS OF MAKING AND USING THE SAME” (priority 2022, published 2026) come the findings set out here.

The subject of data set [1] is HepG2 cells. Kind of data set: HepG2 MTT viability assay (Example 2). The format is cell-based, human. As to conditions: HepG2, 37 °C overnight. The procedure:
FIG. 28 depicts a viability assay for HepG2 cells treated with two first generation compounds and two second generation compounds.
Next, viability assays were performed by seeding HepG2 (liver cancer cell line) onto 96 well plates and allowing the cells to adhere overnight. DMEM cell culture media containing various concentrations of each FTag compound were then added, and the plates were incubated at 37 °C overnight. The supernatant was then removed and MTT viability dyes were added to each well and allowed to convert for 2 hours. Dye absorbance for each condition was then compared to positive (20% DMSO) and negative (blank media) controls to calculate % viability (FIG. 28).
(Formazan colour is commonly taken as a measure of viable cells.)

The test system of data set [2] is seven model proteins (Hb, GFP, BSA, β-Gal, IgG, TFN, URE). Kind of data set: Fluorochemical-mediated dispersion of test proteins into perfluorohexane. The format is physicochemical. As to conditions: into PFH, 1000:1 molar ratio with protein. An excerpt: Only the rabbit IgG Fc fragment is shown.
For PFAS amphiphiles, the combination of polar head group and fluorophilic tail additionally leads to their preferential assembly at water-fluorous interfaces. Based on these unique properties, it was speculated that PFAS compounds may noncovalently associate with proteins to mediate their phase separation into fluorous media. To test this, a screening assay was developed to qualitatively investigate the binding affinity of a library of perfluorinated chemicals with seven model proteins, which include human hemoglobin (Hb), green fluorescent protein (GFP), bovine serum albumin (BSA), (β-Galactosidase (β-Gal), rabbit serum immunoglobulin (IgG), bovine apo-transferrin (TFN), and urease (URE). This group of model proteins captures an array of physicochemical properties ranging in molecular weight, solvent accessible surface area (SASA), isoelectric point (pI), and hydrodynamic radii. A corresponding perfluorinated small molecule test set was selected to contain a plurality of functional groups, linear perfluorocarbon chain lengths, and cyclic or aromatic geometries (FIGS. 1-7). Selection of these compounds was based on their potential to form noncovalent bonds (i.e., hydrogen or ionic) with the solvent exposed protein surfaces. […] These three linear PFAS chemicals are currently regulated by the US Environmental Protection Agency based on their reproductive, immune, and hepatic toxicity (References: 44-46). In sum, the structural and biochemical diversity represented in the protein and fluorochemical libraries was rationally selected to allow structure-function-performance relationships to be ascertained from binding studies.

Data set [3] has as its system β-Galactosidase (β-Gal). As to conditions: into PFH, 1000:1 molar ratio with protein. The text has this: FIGS. 8A-8G depict fluorochemical-mediated dispersion of test proteins hemoglobin (Hb, FIG. 8A), green fluorescent protein (GFP, FIG. 8B), bovine serum albumin (BSA, FIG. 8C), β-Galactosidase (β-Gal, FIG. 8D), rabbit serum immunoglobulin G (IgG, FIG. 8E), bovine apo-transferrin (TFN, FIG. 8F), and urease (URE, FIG. 8G) into perfluorohexane. […] The compound ‘0’ indicates a control sample absent of an additive. The crystal structure of each protein candidate tested is shown in the inset of each of FIGS. 8A-8G. Only the rabbit IgG Fc fragment is shown.
To investigate PFAS-protein binding avidity, an assay was developed to measure the concentration of protein dispersed into perfluorohexane (PFH) in the presence of each fluorochemical compound (1000:1 molar ratio with protein). Protein dispersion into PFH served as a quantitative measure of PFAS-protein avidity, where the amount of dispersed protein was normalized to its initial concentration to evaluate binding interactions.

Data set [4] deals with E. coli. Briefly: Bacterial contamination of BSA samples with E. coli. As to conditions: 37 °C overnight. The procedure: FIG. 24A: Diagram of contamination experiment. FIG. 24B: Samples in PBS (top) and PFOc (bottom) after contamination with E. coli.
To model bacterial contamination of samples a hypodermic needle was streaked across a lawn of plated E. coli (FIG. 24A). The contaminated needle was then dipped into PBS or PFOc (containing PFNA) samples with dispersed BSA protein to contaminate, and samples incubated at 37 °C overnight to allow for bacterial growth. An aliquot of the solution was then streaked onto LB-agar plates and incubated at 37 C overnight to allow for bacterial colony formation.

The test system of data set [5] is E. coli, P. aeruginosa, K. pneumoniae, Methicillin-resistant S. aureus (MRSA), C. albicans. Kind of data set: Contamination of BSA formulations by bacterial and fungal pathogens. The text has this: FIG. 53 depicts representative photographs of agar plates streaked with BSA formulations in PBS (top panel) or PFOc (lower panel) contaminated with the indicated pathogen. MRSA=methicillin resistant Staphylococcus aureus.
Evaluating PFOc Protein Formulation Resilience Against Contaminants Aqueous protein formulations can be compromised by contaminating pathogens, or the biologic inactivated by exposure to environmental disinfectants and acids. In the context of bacterial and fungal contamination, it was hypothesized that removal of the water solvent required for microorganismal survival should make the PFOc protein formulations intrinsically sterile. A hypodermic needle was streaked across a lawn of the human bacterial pathogens E. coli, P. aeruginosa, K. pneumoniae or Methicillin-resistant S. aureus (MRSA), as well as the human fungal pathogen C. albicans prepared on agar. The contaminated needle was then submerged into BSA protein formulations prepared in either PBS or PFOc solvents. Contaminated liquid formulations were incubated at 37 °C overnight and replated onto agar plates to assess growth.

The nature of data set [6]: Temperature-dependent circular dichroism of proteins in PFOc or PBS (Example 4). It counts as physicochemical. The procedure: FIGS. 39A-39B depict temperature-dependent CD spectra of the indicated test protein solubilized in PFOc using the PD-7 dispersant, or PBS as a control.
FIG. 40 depicts the change in minimum CD ellipticity over the 40 °C-85 °C temperature interval for the indicated protein dissolved in either PBS or PFOc.
To determine structural integrity of proteins in aqueous and fluorinated environments at elevated temperatures, circular dichroism (CD) was used to probe secondary structure. Proteins were either diluted in PBS (aqueous) or dispersed in PFOc at the same designated concentrations according to protocol described above. For aqueous samples, dissolved proteins were heated between 40 °C to 90 °C, and their corresponding CD spectra at each temperature was measured. For PFOc samples, each of the PFOc dispersed proteins were subjected to heat treatment at 40, 55, 70, and 85 °C for 15 minutes. After that, dispersed proteins were eluted into PBS before having their CD spectra taken. Data is shown by representative ellipticity at each temperature depicted by distinct colors.
In general terms: Circular dichroism is widely used to follow secondary structure.

The nature of data set [7]: Thermal stability of proteins in PFNA/PFOc (bioactivity after heating). It counts as physicochemical. As to conditions: PFNA/PFOc mixture compared to aqueous solution, 30 min heating. The procedure:
FIGS. 16A-16C depict that the thermal stability of β-gal, GFP, and Trypsin is enhanced when the proteins are dissolved in a PFNA/PFOc mixture, compared to aqueous solutions of the proteins.
PFNA enhanced thermal stability in PFOc Differential scanning calorimetry (DSC) measurements were performed on 5 test proteins dissolved in either PBS (Aq.) or Perfluorooctane (PFOc). PFNA dispersant was added only for the PFOc conditions. DSC was performed at 2 °C/min ramp from 40 °C-100 °C. Melting temperature (Tm) was determined based on positive inflection of heat capacity curve, indicating protein unfolding (FIG. 15). Change in melting temperature (ATm (°C)) represented the difference in Tm between aqueous (Aq.) and PFOc data. Tm for GFP in PFOc could not be achieved at the maximum temperature of 100 °C for the DSC experiments. Each protein was dissolved in PBS (Aq.) or PFNA/PFOc mixture. Dissolved proteins were heated to 75 °C (β-gal), 90 °C (GFP) or 80 °C (Trypsin); treatment temperatures were determined based on aqueous melting temperatures for each protein. Positive controls were maintained at room temperature (25 °C). […] Bioactivity was evaluated then via fluorescence measurements for GFP, or using colorimetric substrate conversion assays (ONPG for β-gal, BAEE for Trypsin). […]

The nature of data set [8]: Protein activity after elevated temperature exposure (Example 4). It counts as physicochemical. As to conditions: 90 °C for 30 minutes. The procedure:
A group of enzyme proteins, β-Gal and Trypsin was chosen for this study. β-Gal and Trypsin were diluted in PBS or dispersed in PFOc at 1 μM and 10 μM, respectively. Next, a subset of samples was subjected to elevated temperature condition (90 °C) well beyond their native denaturation temperature for 30 minutes. After that, samples were allowed to cool down to room temperature before retrieval. For PFOc samples, proteins were extracted into PBS before performing the ensuing assays. To determine the enzymatic activity, an equal volume of protein samples was added to their substrates dissolved in PBS (4 mg/mL ONPG for β-Gal or 1 mg/mL BAEE for Trypsin). After incubation, ONPG and BAEE substrate conversions were measured by taking absorbance using a microplate reader at 420 nm or 400 nm, respectively. In case of intrinsic fluorescence, GFP was similarly prepared, and heat treated. After GFP samples were retrieved, fluorescent intensity was taken at λex=490 nm, λem=520 nm. The change in protein activity was presented by normalizing to spectrometric readings of each protein dissolved in PBS without being subjected to heat (room temperature). […] This supports the assertion that the fluorous coating and solvent environments, together, serve to constrain the conformational flexibility of the dispersed protein and, as a result, increase its melting temperature.

Setting [9] is: dispersed in PFOc using PD-7, heated up to 85 °C.

As a reminder, the IC50 is the midpoint of a concentration-inhibition curve.

In data set [1], “2,2-(1,1,1,2,2,3,3,4,4,5,5,6,6-tridecafluorooctane)-2-cyanoacetic acid [Compound 21]” came in with an IC50 of 610 µM.

For the molecule `O=C(O)C(F)(F)C(F)(F)C(F)(F)C(F)(F)C(F)(F)C(F)(F)C(F)(F)F` [Compound 6, perfluorooctanoic acid], in data set [2], the “capacity to disperse proteins into PFH / association with proteins (in words)” value is “significantly compromised its association with most proteins”.

Turning to `O=C(O)C(F)(F)C(F)(F)C(F)(F)C(F)(F)C(F)(F)C(F)(F)C(F)(F)C(F)(F)C(F)(F)F` [Compound 8, perfluorodecanoic acid], the “capacity to disperse proteins into PFH / association with proteins (in words)” value in data set [2] is “significantly compromised its association with most proteins”.

`O=C(O)C(F)(F)C(F)(F)C(F)(F)C(F)(F)C(F)(F)C(F)(F)C(F)(F)C(F)(F)C(F)(F)C(F)(F)C(F)(F)F` [Compound 10, perfluorododecanoic acid]: in data set [3], the “dispersion efficiency of β-Gal (in words)” value is on record as “stepwise increase in dispersion efficiency”.

Regarding `O=C(O)C(F)(F)C(F)(F)C(F)(F)C(F)(F)C(F)(F)C(F)(F)C(F)(F)C(F)(F)C(F)(F)C(F)(F)C(F)(F)C(F)(F)C(F)(F)F` [Compound 11, perfluorotetradecanoic acid], the “dispersion efficiency of β-Gal (in words)” value in data set [3] is recorded as “sharp drop off in dispersion efficiency”.

On to `O=C(O)C1(F)C(F)(F)C(F)(F)C(F)(F)C(F)(F)C1(F)F` [Compound 13, perfluorocyclohexanecarboxylic acid], for which the “capacity to disperse proteins into PFH / association with proteins (in words)” value in data set [2] is “capacity to disperse many of the protein candidates into PFH”.

`O=S(=O)(O)C(F)(F)C(F)(F)C(F)(F)C(F)(F)C(F)(F)C(F)(F)C(F)(F)C(F)(F)F` [Compound 17, perfluorooctanesulfonic acid]: the “capacity to disperse proteins into PFH / association with proteins (in words)” value in data set [2] is given as “capacity to disperse many of the protein candidates into PFH”.

For the molecule `NCC(F)(F)C(F)(F)C(F)(F)C(F)(F)C(F)(F)C(F)(F)C(F)(F)C(F)(F)F` [Compound 20, 1H,1H-perfluorononylamine], the “capacity to disperse proteins into PFH / association with proteins (in words)” value in data set [2] was “capacity to disperse many of the protein candidates into PFH”.

Take BSA: bovine serum albumin (BSA): in data set [4] (BSA in PBS), the “E. coli colony growth after contamination” value was “Visible E. coli colony growth”. Further, the sterility after contamination entry in data set [4] (BSA in PFOc (containing PFNA)) and in data set [5] (BSA in PFOc) was “remained sterile” each time. Further, the contamination entry in data set [5] (BSA in PBS) is on record as “readily contaminated by all five pathogens”. Moreover, the “change in secondary structure” value in data set [6] (setting [9]) is reported as “minimal changes in secondary structure”.

B1: Trypsin: bovine trypsin (protein, UniProt P00760 24-246, looked up)
Serine protease 1: IVGGYTCGANTVPYQVSLNSGYHFCGGSLINSQWVVSAAHCYKSGIQVRLGEDNINVVEGNEQFISASKSIVHPSYNSNTLNNDIMLIKLKSAASLNSRVASISLPTSCASAGTQCLISGWGNTKSSGTSYPDVLKCLKAPILSDSSCKSAYPGQITSNMFCAGYLEGGKDSCQGDSGGPVVCSGKLQGIVSWGSGCAQKNKPGVYTKVCNYVSWIKQTIASN
As for B1, the thermal stability result in data set [7] was “enhanced”. In addition, in data set [8] (PFOc dispersed), the “change in activity after heating” value is listed as “no statistically significant change in activity”. For the same molecule, the “loss of bioactivity after heating” value in data set [8] (saline) is over 90%. Further, the “change in secondary structure” value in data set [6] (setting [9]) was “minimal changes in secondary structure”; in data set [6] (saline (PBS) control, 40-85 °C), “minimal change in structure”.
